System: 3D7-MR4 trophozoite parasite-infected RBCs
Experiment: Metabolomic profiling (hydrophilic metabolite changes, UHPLC-MS)
Type: cell-based, Plasmodium falciparum

Ferroquine [reference compound]
changes within the set of metabolites detected (low fold change group) (10 × IC50^72h, 2.5 hr, trophozoites): did not induce major changes | Log2(fold changes) 1_3-Bisphosphoglyceric acid (metabolite 1_3-Bisphosphoglyceric acid, log2 fold change): 0.0000 | Log2(fold changes) 2-Hydroxy-2-methylbutanedioic acid (metabolite 2-Hydroxy-2-methylbutanedioic acid, log2 fold change): -0.0247 | Log2(fold changes) 2-Isopropylmalic acid (metabolite 2-Isopropylmalic acid, log2 fold change): 0.0000 | Log2(fold changes) 2-dehydro-D-gluconate (metabolite 2-dehydro-D-gluconate, log2 fold change): -0.3147 | Log2(fold changes) 2-oxo-4-methylthiobutanoate (metabolite 2-oxo-4-methylthiobutanoate, log2 fold change): 0.0000 | Log2(fold changes) 2_3-Diphosphoglyceric acid (metabolite 2_3-Diphosphoglyceric acid, log2 fold change): -0.0833 | Log2(fold changes) 3-phosphoglycerate (metabolite 3-phosphoglycerate, log2 fold change): 0.2090 | Log2(fold changes) 3-phosphoserine (metabolite 3-phosphoserine, log2 fold change): 0.0000 | Log2(fold changes) 4-Pyridoxic acid (metabolite 4-Pyridoxic acid, log2 fold change): 0.0751 | Log2(fold changes) 4-aminobutyrate (metabolite 4-aminobutyrate, log2 fold change): 0.0759 | Log2(fold changes) 4-phosphopantetheine (metabolite 4-phosphopantetheine, log2 fold change): 0.0000 | Log2(fold changes) 4-phosphopantothenate (metabolite 4-phosphopantothenate, log2 fold change): 0.0213 | Log2(fold changes) 5-aminopentanoic acid (metabolite 5-aminopentanoic acid, log2 fold change): 0.0000 | Log2(fold changes) 5-methyl-THF (metabolite 5-methyl-THF, log2 fold change): 0.0000 | Log2(fold changes) 5-phosphoribosyl-1-pyrophosphate (metabolite 5-phosphoribosyl-1-pyrophosphate, log2 fold change): 0.0000 | Log2(fold changes) 6-phospho-D-gluconate (metabolite 6-phospho-D-gluconate, log2 fold change): 0.0000 | Log2(fold changes) ADP-D-glucose (metabolite ADP-D-glucose, log2 fold change): 0.0625 | Log2(fold changes) Acetyl-glycine (metabolite Acetyl-glycine, log2 fold change): 0.0000 | Log2(fold changes) Acetyllysine (metabolite Acetyllysine, log2 fold change): 0.2432 | Log2(fold changes) Aminoadipic acid (metabolite Aminoadipic acid, log2 fold change): 0.0000 | Log2(fold changes) CDP (metabolite CDP, log2 fold change): -0.2924 | Log2(fold changes) CDP-choline (metabolite CDP-choline, log2 fold change): 0.0000 | Log2(fold changes) CDP-ethanolamine (metabolite CDP-ethanolamine, log2 fold change): 0.1904 | Log2(fold change) of CMP (metabolite CMP): -0.0276 | Log2(fold change) of CTP (metabolite CTP): 0.0362 | Log2(fold changes) Citraconic acid (metabolite Citraconic acid, log2 fold change): 0.0302 | Log2(fold change) of D-glucarate (metabolite D-glucarate): 0.4691 | Log2(fold change) of D-gluconate (metabolite D-gluconate): 0.0000 | Log2(fold change) of D-glucosamine-1/6-phosphate (metabolite D-glucosamine-1/6-phosphate): 0.0000 | Log2(fold change) of D-sedoheptulose-1/7-phosphate (metabolite D-sedoheptulose-1/7-phosphate): -0.0036 | Log2(fold change) of DL-Pipecolic Acid (metabolite DL-Pipecolic Acid): -0.1035 | Log2(fold change) of DLH (metabolite DLH): 0.0094 | Log2(fold change) of DLS (metabolite DLS): 0.0686 | Log2(fold change) of Decanoyl-CoA (metabolite Decanoyl-CoA): 0.0000 | Log2(fold change) of EV (metabolite EV): 0.0000 | Log2(fold change) of FAD (metabolite FAD): 0.0236 | Log2(fold change) of FMN (metabolite FMN): 0.1126 | Log2(fold change) of G3P/DHAP (metabolite G3P/DHAP): 0.0000 | Log2(fold change) of GDP (metabolite GDP): -0.2435 | Log2(fold change) GMP (metabolite GMP): -0.0369 | Log2(fold change) GTP (metabolite GTP): 0.0612 | Log2(fold change) HVDD (metabolite HVDD): 0.0000 | Log2(fold change) Hexose (metabolite Hexose): 0.9215 | Log2(fold change) Hydroxyisocaproic acid (metabolite Hydroxyisocaproic acid): 0.0000 | Log2(fold change) IDP (metabolite IDP): 0.0000 | Log2(fold change) IMP (metabolite IMP): -0.0158 | Log2(fold change) Inositol (metabolite Inositol): 0.0000 | Log2(fold change) Isopentyl-PP (metabolite Isopentyl-PP): 0.0768 | Log2(fold change) L-arginino-succinate (metabolite L-arginino-succinate): 0.0000 | Log2(fold change) LD (metabolite LD): 0.1184 | Log2(fold change) Myristoyl/tetradecanoyl-CoA (metabolite Myristoyl/tetradecanoyl-CoA): 0.0000 | Log2(fold change) N-Acetyl-L-alanine (metabolite N-Acetyl-L-alanine): -0.1094 | Log2(fold change) N-acetyl-L-ornithine (metabolite N-acetyl-L-ornithine): 0.3046 | Log2(fold change) N-acetyl-glucosamine-1/6-phosphate (metabolite N-acetyl-glucosamine-1/6-phosphate): -0.0561 | Log2(fold change) N-acetyl-glutamate (metabolite N-acetyl-glutamate): 0.1101 | Log2(fold change) N-acetyl-glutamine (metabolite N-acetyl-glutamine): 0.0004 | Log2(fold change) N-carbamoyl-L-aspartate (metabolite N-carbamoyl-L-aspartate): 0.0860 | Log2(fold change) NAD+ (metabolite NAD+): 0.0993 | Log2(fold change) NADH (metabolite NADH): 0.0000 | Log2(fold change) NADP+ (metabolite NADP+): -0.0805 | Log2(fold change) NADPH (metabolite NADPH): 0.9289 | Log2(fold change) O-acetyl-L-serine (metabolite O-acetyl-L-serine): 0.0000 | Log2(fold change) Octoluse 8/1P (metabolite Octoluse 8/1P): 0.1026 | Log2(fold change) Octoluse Bisphosphate (metabolite Octoluse Bisphosphate): 0.0231 | Log2(fold change) PD (metabolite PD): 0.1011 | Log2(fold change) PE (metabolite PE): 0.0655 | Log2(fold change) PEE (metabolite PEE): 0.0431 | Log2(fold change) PEEK (metabolite PEEK): 0.3448 | Log2(fold change) PVNF (metabolite PVNF): 0.0000 | Log2(fold change) Pyroglutamic acid (metabolite Pyroglutamic acid): 0.1702 | Log2(fold change) Pyrophosphate (metabolite Pyrophosphate): 0.0000 | Log2(fold change) Ribose-5-phosphate (metabolite Ribose-5-phosphate): 0.0000 | Log2(fold change) S-adenosyl-L-homocysteine (metabolite S-adenosyl-L-homocysteine): 0.0736 | Log2(fold change) S-adenosyl-L-methioninamine (metabolite S-adenosyl-L-methioninamine): 0.0000 | Log2(fold change) S-adenosyl-L-methionine (metabolite S-adenosyl-L-methionine): 0.0000 | Log2(fold change) S-methyl-5'-thioadenosine (metabolite S-methyl-5'-thioadenosine): 0.0000 | Log2(fold change) SD (metabolite SD): 0.1281 | Log2(fold change) SDL (metabolite SDL): 0.2089 | Log2(fold change) SID (metabolite SID): 0.0000 | Log2(fold change) Sedoheptulose bisphosphate (metabolite Sedoheptulose bisphosphate): 0.0573 | Log2(fold change) Thiamine pyrophosphate (metabolite Thiamine pyrophosphate): 0.0000 | Log2(fold changes) UDP-D-glucose (metabolite UDP-D-glucose, log2 fold change): 0.0465 | Log2(fold changes) UDP-D-glucuronate (metabolite UDP-D-glucuronate, log2 fold change): 0.0272 | Log2(fold changes) UDP-N-acetyl-glucosamine (metabolite UDP-N-acetyl-glucosamine, log2 fold change): 0.0319 | Log2(fold changes) UDP (metabolite UDP, log2 fold change): -0.2525 | Log2(fold changes) UMP (metabolite UMP, log2 fold change): -0.0522 | Log2(fold changes) UTP (metabolite UTP, log2 fold change): 0.1015 | Log2(fold changes) VD (metabolite VD, log2 fold change): 0.1916 | Log2(fold changes) Xanthurenic acid (metabolite Xanthurenic acid, log2 fold change): 0.0000 | Log2(fold changes) a-ketoglutarate (metabolite a-ketoglutarate, log2 fold change): -0.2164 | Log2(fold changes) acetyl-CoA (metabolite acetyl-CoA, log2 fold change): 0.0673 | Log2(fold changes) acetyl-aspartate (metabolite acetyl-aspartate, log2 fold change): -0.0096 | Log2(fold changes) acetylphosphate (metabolite acetylphosphate, log2 fold change): 0.0000 | Log2(fold changes) aconitate (metabolite aconitate, log2 fold change): 0.0000 | Log2(fold changes) adenine (metabolite adenine, log2 fold change): 0.0000 | Log2(fold changes) adenosine 5'-phosphosulfate (metabolite adenosine 5'-phosphosulfate, log2 fold change): -0.1961

Source: PMC7031696 (Cell chemical biology, 2019)
